molecular target: T1, human MDM2 (GST-hMDM2 aa 1-188), interaction with biotinylated-p53 (aa 1-83) (Homo sapiens, UniProt Q00987); experiment: Homogenous Time-Resolved Fluorescence Assay (HTRF1 assay), inhibition of HDM2-p53 interaction; assay type: binding; details: 2.5 nM GST-hMDM2, 5 nM biotinylated-p53, 200 mM KF
T1 construct: Amino acid residues 1-188 of human MDM2 were expressed; made in house; host or cells: Escherichia coli
Procedure: Homogenous Time-Resolved Fluorescence Assay (HTRF1 Assay)
Residues 1-83 of human p53 were expressed as an amino-terminal AviTag™-TrxA-6xHis fusion protein (biotinylated p53) in E. coli. Each protein was purified from cell paste by affinity chromatography.
Specifically, 10 uL of GST-hMDM2 was incubated with 10 ul of diluted compound (various concentrations, serially diluted) in 10% DMSO for 20 minutes at room temperature. 20 uL of biotinylated-p53 was added to the GST-hMDM2+ compound mixture, and then incubated at room temperature for 60 min. 10 uL of detection buffer consisting of SA-XLent, anti-GST cryptate antibody and KF was added to GST-hMDM2, biotinylated-p53 and compound reaction and left at room temperature to reach equilibrium for >4 hrs. The final concentration of DMSO in the reaction was 2%. Time-resolved fluorescence readings were measured on a microplate multilabel reader. Percentage of inhibition was calculated relative to nutlin-3.

T1 sequence (Q00987 1-188): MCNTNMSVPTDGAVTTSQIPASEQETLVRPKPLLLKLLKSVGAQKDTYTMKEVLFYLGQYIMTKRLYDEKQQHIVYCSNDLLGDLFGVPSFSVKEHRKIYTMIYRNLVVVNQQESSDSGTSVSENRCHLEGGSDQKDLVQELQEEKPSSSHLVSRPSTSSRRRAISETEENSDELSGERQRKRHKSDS

Row | IC50 [nM] | Compound
1 | 1100 | N#Cc1cc(F)cc([C@H]2OC(CC(=O)O)C(=O)N(CC3CC3)[C@@H]2c2ccc(Cl)cc2)c1 (single isomer, unassigned) [Example 99]
2 | 100 | CC[C@@H](C(=O)OC(C)(C)C)N1C(=O)[C@H](CC(=O)O)O[C@H](c2cccc(Cl)c2)[C@H]1c1ccc(Cl)cc1 (single isomer, unassigned) [Example 31]
3 | 300 | O=C(O)CC1O[C@H](c2cc(Cl)cc(Cl)c2)[C@@H](c2ccc(Cl)cc2)N(CC2CC2)C1=O (single isomer, unassigned) [Example 93]
4 | 1800 | O=C(O)CC1O[C@H](c2cncc(Cl)c2)[C@@H](c2ccc(Cl)cc2)N(CC2CC2)C1=O (single isomer, unassigned) [Example 87]
5 | 1000 | C[C@H](c1ccccc1)N1C(=O)[C@@H](CC(=O)O)O[C@H](c2cccc(Cl)c2)[C@H]1c1ccc(Cl)cc1 [Example 24, 2-((2R,5R,6R)-6-(3-Chlorophenyl)-5-(4-chlorophenyl)-3-oxo-4-((R)-1-phenylethyl)morpholin-2-yl)acetic acid]
6 | 600 | O=C(O)C[C@@H]1O[C@H](c2cccc(Cl)c2)[C@@H](c2ccc(Cl)cc2F)N(CC2CC2)C1=O [Example 54, 2-((2S,5R,6R)-5-(4-Chloro-2-fluorophenyl)-6-(3-chlorophenyl)-4-(cyclopropylmethyl)-3-oxomorpholin-2-yl)acetic acid]
7 | 1500 | O=C(O)C[C@H]1O[C@H](c2cccc(Cl)c2)[C@@H](c2ccc(F)cc2)N(CC2CC2)C1=O [Example 64, 2-((2R,5R,6R)-6-(3-Chlorophenyl)-4-(cyclopropylmethyl)-5-(4-fluorophenyl)-3-oxomorpholin-2-yl)acetic acid]

Row | Compound | IC50 [nM]
8 | O=C(O)/C=C1/O[C@H](c2cccc(Cl)c2)[C@@H](c2ccc(Cl)cc2)N(CC2CC2)C1=O (single isomer, unassigned; isomer 2) [Example 52, (E)-2-((5R,6R)-6-(3-Chlorophenyl)-5-(4-chlorophenyl)-4-(cyclopropylmethyl)-3-oxomorpholin-2-ylidene)acetic acid or (Z)-2-((5R,6R)-6-(3-Chlorophenyl)-5-(4-chlorophenyl)-4-(cyclopropylmethyl)-3-oxomorpholin-2-ylidene)acetic acid (Isomer 2)] | 19700

molecular target: T2, human MDM2 (GST-hMDM2 1-188), interaction with biotinylated-p53 (1-83) (Homo sapiens, UniProt Q00987); experiment: improved HTRF assay (HTRF2 assay), inhibition of HDM2-p53 interaction; assay type: binding; details: 0.2 nM GST-hMDM2, 0.5 nM biotinylated-p53, 100 mM KF
T2 construct: Amino acid residues 1-188 of human MDM2 were expressed; made in house; host or cells: Escherichia coli
In short: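 Time-resolved fluorescence (HTRF) read after >4 h equilibration with SA-XLent/anti-GST cryptate/KF detection reagents. Reaction: compound plus GST-hMDM2 for 20 min at room temperature, then E. coli-expressed biotinylated p53 residues 1-83 for 60 min, 2% DMSO final. Inhibition expressed versus nutlin-3.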

T2 sequence (Q00987 1-188): as above

Row | Compound | IC50 [nM]
9 | CC(C)(C)S(=O)(=O)C[C@@H](C1CCC1)N1C(=O)[C@@H](CC(=O)O)O[C@H](c2cccc(Cl)c2)[C@H]1c1ccc(Cl)cc1 (single isomer, unassigned) [Example 272, 2-((2R,5R,6R)-4-((R)-2-(tert-Butylsulfonyl)-1-cyclobutylethyl)-6-(3-chlorophenyl)-5-(4-chlorophenyl)-3-oxomorpholin-2-yl)acetic acid or 2-((2S,5R,6R)-4-((R)-2-(tert-butylsulfonyl)-1-cyclobutylethyl)-6-(3-chlorophenyl)-5-(4-chlorophenyl)-3-oxomorpholin-2-yl)acetic acid] | 154
10 | CNC(=O)C[C@H]1O[C@H](c2cccc(Cl)c2)[C@@H](c2ccc(Cl)cc2)N([C@H](CN(c2ccccc2F)S(=O)(=O)C2CC2)C2CC2)C1=O (single isomer, unassigned) [Example 365, 2-((2R,5R,6R)-6-(3-Chlorophenyl)-5-(4-chlorophenyl)-4-((S)-1-cyclopropyl-2-(N-(2-fluorophenyl)cyclopropanesulfonamido)ethyl)-3-oxomorpholin-2-yl)-N-methylacetamide or 2-((2S,5R,6R)-6-(3-chlorophenyl)-5-(4-chlorophenyl)-4-((S)-1-cyclopropyl-2-(N-(2-fluorophenyl)cyclopropanesulfonamido)ethyl)-3-oxomorpholin-2-yl)-N-methylacetamide] | 2
11 | O=C1[C@@H](Cc2ncn[nH]2)O[C@H](c2cccc(Cl)c2)[C@@H](c2ccc(Cl)cc2)N1[C@H](CN(c1ccccc1F)S(=O)(=O)C1CC1)C1CC1 (single isomer, unassigned) [Example 397, N-((S)-2-((2R,5R,6R)-2-((1H-1,2,4-Triazol-5-yl)methyl)-6-(3-chlorophenyl)-5-(4-chlorophenyl)-3-oxomorpholino)-2-cyclopropylethyl)-N-(2-fluorophenyl)cyclopropanesulfonamide or N-((S)-2-((2S,5R,6R)-2-((1H-1,2,4-triazol-5-yl)methyl)-6-(3-chlorophenyl)-5-(4-chlorophenyl)-3-oxomorpholino)-2-cyclopropylethyl)-N-(2-fluorophenyl)cyclopropanesulfonamide] | 1
12 | CC[C@@H](CS(=O)(=O)C1CC1)N1C(=O)[C@@H](CC(=O)O)O[C@H](c2cccc(Cl)c2)[C@H]1c1ccc(Cl)cc1 (single isomer, unassigned) [Example 212, 2-((2R,5R,6R)-6-(3-chlorophenyl)-5-(4-chlorophenyl)-4-((S)-1-(cyclopropylsulfonyl)butan-2-yl)-3-oxomorpholin-2-yl)acetic acid or 2-((2S,5R,6R)-6-(3-chlorophenyl)-5-(4-chlorophenyl)-4-((S)-1-(cyclopropylsulfonyl)butan-2-yl)-3-oxomorpholin-2-yl)acetic acid] | 2
13 | C[C@@H](CS(=O)(=O)C(C)(C)C)N1C(=O)[C@H](CC(=O)N(C)C)O[C@H](c2cccc(Cl)c2)[C@H]1c1ccc(Cl)cc1 (single isomer, unassigned) [Example 231, 2-((2S,5R,6R)-4-((S)-1-(tert-butylsulfonyl)propan-2-yl)-6-(3-chlorophenyl)-5-(4-chlorophenyl)-3-oxomorpholin-2-yl)-N,N-dimethylacetamide or 2-((2R,5R,6R)-4-((S)-1-(tert-butylsulfonyl)propan-2-yl)-6-(3-chlorophenyl)-5-(4-chlorophenyl)-3-oxomorpholin-2-yl)-N,N-dimethylacetamide] | 16
14 | CC[C@@H](CN(c1ccccc1F)S(=O)(=O)C1CC1)N1C(=O)[C@@H](CC(=O)O)O[C@H](c2cccc(Cl)c2)[C@H]1c1ccc(Cl)s1 (single isomer, unassigned) [Example 216, 2-((2R,5S,6R)-6-(3-chlorophenyl)-5-(5-chlorothiophen-2-yl)-4-((S)-1-(N-(2-fluorophenyl)cyclopropanesulfonamido)butan-2-yl)-3-oxomorpholin-2-yl)acetic acid or 2-((2S,5S,6R)-6-(3-chlorophenyl)-5-(5-chlorothiophen-2-yl)-4-((S)-1-(N-(2-fluorophenyl)cyclopropanesulfonamido)butan-2-yl)-3-oxomorpholin-2-yl)acetic acid] | < 1
15 | CC[C@@H](CS(=O)(=O)C(C)(C)C)N1C(=O)[C@@H](C[C@@H](O)CO)O[C@H](c2cccc(Cl)c2)[C@H]1c1ccc(Cl)cc1 (single isomer, unassigned) [Example 372] | 67
16 | O=C(O)C[C@H]1O[C@H](c2cccc(Cl)c2)[C@@H](c2ccc(Cl)cc2)N([C@H](CS(=O)(=O)N2CCOCC2)C2CC2)C1=O (single isomer, unassigned) [Example 302, 2-((2R,5R,6R)-6-(3-Chlorophenyl)-5-(4-chlorophenyl)-4-((S)-1-cyclopropyl-2-(morpholinosulfonyl)ethyl)-3-oxomorpholin-2-yl)acetic acid or 2-((2S,5R,6R)-6-(3-chlorophenyl)-5-(4-chlorophenyl)-4-((S)-1-cyclopropyl-2-(morpholinosulfonyl)ethyl)-3-oxomorpholin-2-yl)acetic acid] | < 1
17 | CC[C@@H](CS(=O)(=O)CC1CC1)N1C(=O)[C@@H](CC(=O)O)O[C@H](c2cccc(Cl)c2)[C@H]1c1ccc(Cl)cc1 (single isomer, unassigned) [Example 191, 2-((2R,5R,6R)-6-(3-chlorophenyl)-5-(4-chlorophenyl)-4-((S)-1-((cyclopropylmethyl)sulfonyl)butan-2-yl)-3-oxomorpholin-2-yl)acetic acid or 2-((2S,5R,6R)-6-(3-chlorophenyl)-5-(4-chlorophenyl)-4-((S)-1-((cyclopropylmethyl)sulfonyl)butan-2-yl)-3-oxomorpholin-2-yl)acetic acid] | 5
18 | CC[C@@H](CS(=O)(=O)C(C)(C)C)N1C(=O)[C@@H](CC(=O)O)O[C@H](c2cccc(Cl)c2)[C@@]1(C)c1ccc(Cl)cc1 (single isomer, unassigned) [Example 163, 2-((2R,5R,6R)-4-((S)-1-(tert-butylsulfonyl)butan-2-yl)-6-(3-chlorophenyl)-5-(4-chlorophenyl)-5-methyl-3-oxomorpholin-2-yl)acetic acid or 2-((2S,5R,6R)-4-((S)-1-(tert-butylsulfonyl)butan-2-yl)-6-(3-chlorophenyl)-5-(4-chlorophenyl)-5-methyl-3-oxomorpholin-2-yl)acetic acid] | 6620
19 | O=C(O)C[C@H]1O[C@H](c2cccc(Cl)c2)[C@@H](c2ccc(Cl)cc2)N([C@H](CN(c2ccccc2F)S(=O)(=O)C2CC2)CC(F)(F)F)C1=O (single isomer, unassigned) [Example 277] | 106
20 | CC[C@@H](CS(=O)(=O)C(C)(C)C)N1C(=O)[C@@H](CC#N)O[C@H](c2cccc(Cl)c2)[C@H]1c1ccc(Cl)cc1 [Example 381, 2-((2R,5R,6R)-4-((S)-1-(tert-Butylsulfonyl)butan-2-yl)-6-(3-chlorophenyl)-5-(4-chlorophenyl)-3-oxomorpholin-2-yl)acetonitrile] | 66

Source: patent publication US9376425B2, “Heterocyclic compounds as MDM2 inhibitors for the treatment of cancer” (AMGEN INC., priority 2011, dated 2016)
